From patent US10865208B2, “ATG7 inhibitors and the uses thereof” (Millennium Pharmaceuticals, Inc., priority 2016, dated 2020)

Target: recombinant human His-ATG7 enzyme (Homo sapiens (Human), UniProt O95352)
Experiment: ATG7 Enzyme Assay (HTRF/FRET, ATG3-GST and Flag-Gabarap)
Format: biochemical
Settings: for inhibition at 0.123 µM: Concentration 0.123 μM; for inhibition at 0.123 µM / inhibition at 0.111 µM: read-out: Percent Inhibition; for inhibition at 0.111 µM: Concentration 0.111 μM
Summary of the method: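 0.15 nM His-ATG7 was reacted with 5 nM ATG3-GST, 5 nM Flag-Gabarap and 10 μM ATP in HEPES pH 7.5 containing MgCl2, GSH and TCEP for 105 min at 24° C, then stopped with EDTA/KF. Eu-anti-Flag and anti-GST-APC HTRF was read after 2 h. Results are given as single-concentration % inhibition or IC50.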

recombinant human His-ATG7 enzyme, sequence (O95352 whole entry): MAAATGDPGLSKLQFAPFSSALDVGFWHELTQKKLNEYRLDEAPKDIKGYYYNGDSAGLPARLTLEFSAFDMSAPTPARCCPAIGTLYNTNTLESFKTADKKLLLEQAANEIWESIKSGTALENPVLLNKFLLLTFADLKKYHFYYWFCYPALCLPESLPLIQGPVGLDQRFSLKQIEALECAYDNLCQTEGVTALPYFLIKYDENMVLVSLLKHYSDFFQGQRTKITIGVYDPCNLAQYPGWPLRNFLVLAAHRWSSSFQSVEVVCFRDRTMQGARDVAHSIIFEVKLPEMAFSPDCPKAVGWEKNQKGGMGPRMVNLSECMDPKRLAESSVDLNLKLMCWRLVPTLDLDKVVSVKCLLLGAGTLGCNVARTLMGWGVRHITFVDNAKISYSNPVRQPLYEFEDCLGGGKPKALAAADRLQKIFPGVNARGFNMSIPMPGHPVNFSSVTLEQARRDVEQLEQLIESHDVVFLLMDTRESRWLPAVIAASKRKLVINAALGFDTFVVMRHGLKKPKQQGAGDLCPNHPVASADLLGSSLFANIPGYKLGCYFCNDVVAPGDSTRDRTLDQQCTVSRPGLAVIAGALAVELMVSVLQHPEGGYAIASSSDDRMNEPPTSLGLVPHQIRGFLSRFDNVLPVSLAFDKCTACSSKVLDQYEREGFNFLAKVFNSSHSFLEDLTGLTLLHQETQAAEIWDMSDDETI

IC50	inhibition at 0.123 µM	inhibition at 0.111 µM	SMILES
0.02 to 0.05 µM	76%		Nc1ncnc2c1c(SCC1=CCCCC1)nn2[C@@H]1O[C@H](COS(N)(=O)=O)[C@@H](O)[C@H]1O [Compound I-91, [(2R,3S,4R,5R)-5-{4-amino-3-[(cyclohex-1-en-1-ylmethyl)sulfanyl]-1H-pyrazolo[3,4-d]pyrimidin-1-yl}-3,4-dihydroxytetrahydrofuran-2-yl]methyl Sulfamate]
0.1 to 0.5 µM	50%		CC1OCCC1Sc1nn([C@@H]2O[C@H](COS(N)(=O)=O)[C@@H](O)[C@H]2O)c2ncnc(N)c12 (some centres unmarked) [Compound I-92]
0.1 to 0.5 µM	47%		CSCc1nn([C@@H]2O[C@H](COS(N)(=O)=O)[C@@H](O)[C@H]2O)c2ncnc(N)c12 [Compound I-93, [(2R,3S,4R,5R)-5-{4-amino-3-[(methylsulfanyl)methyl]-1H-pyrazolo[3,4-d]pyrimidin-1-yl}-3,4-dihydroxytetrahydrofuran-2-yl]methyl Sulfamate]
0.1 to 0.5 µM		28%	CSc1nn([C@@H]2O[C@@H](COS(N)(=O)=O)[C@@H](O)[C@H]2O)c2ncnc(N)c12 [Compound I-94, {(2S,3S,4R,5R)-5-[4-amino-3-(methylsulfanyl)-1H-pyrazolo[3,4-d]pyrimidin-1-yl]-3,4-dihydroxytetrahydrofuran-2-yl}methyl Sulfamate]
0.1 to 0.5 µM	47%		CC(C)Sc1nn([C@@H]2O[C@@H](COS(N)(=O)=O)[C@@H](O)[C@H]2O)c2ncnc(N)c12 [Compound I-95, {(2S,3S,4R,5R)-5-[4-amino-3-(isopropylsulfanyl)-1H-pyrazolo[3,4-d]pyrimidin-1-yl]-3,4-dihydroxytetrahydrofuran-2-yl}methyl Sulfamate]
0.1 to 0.5 µM		44%	CSc1nn([C@@H]2O[C@@H](COS(N)(=O)=O)[C@@H](O)[C@@H]2F)c2ncnc(N)c12 [Compound I-96, {(2S,3R,4S,5R)-5-[4-amino-3-(methylsulfanyl)-1H-pyrazolo[3,4-d]pyrimidin-1-yl]-4-fluoro-3-hydroxytetrahydrofuran-2-yl}methyl Sulfamate]
0.02 to 0.05 µM		66%	Nc1ncnc2c1c(SCC1CC(F)(F)C1)nn2[C@@H]1O[C@H](COS(N)(=O)=O)[C@@H](O)[C@@H]1F [Compound I-97, [(2R,3R,4S,5R)-5-(4-amino-3-{[(3,3-difluorocyclobutyl)methyl]sulfanyl}-1H-pyrazolo[3,4-d]pyrimidin-1-yl)-4-fluoro-3-hydroxytetrahydrofuran-2-yl]methyl sulfamate]
0.02 to 0.05 µM		77%	Nc1ncnc2c1c(SC(F)F)nn2[C@@H]1O[C@H](COS(N)(=O)=O)[C@@H](O)[C@@H]1F [Compound I-98, [(2R,3R,4S,5R)-5-{4-amino-3-[(difluoromethyl)sulfanyl]-1H-pyrazolo[3,4-d]pyrimidin-1-yl}-4-fluoro-3-hydroxytetrahydrofuran-2-yl]methyl sulfamate]
0.02 to 0.05 µM		70%	Nc1ncnc2c1c(OC(F)F)nn2[C@@H]1O[C@H](COS(N)(=O)=O)[C@@H](O)[C@@H]1F [Compound I-99, {(2R,3R,4S,5R)-5-[4-amino-3-(difluoromethoxy)-1H-pyrazolo[3,4-d]pyrimidin-1-yl]-4-fluoro-3-hydroxytetrahydrofuran-2-yl}methyl Sulfamate]
0.1 to 0.5 µM		50%	Cc1occc1Sc1nn([C@@H]2O[C@H](COS(N)(=O)=O)[C@@H](O)[C@@H]2F)c2ncnc(N)c12 [Compound I-100, [(2R,3R,4S,5R)-5-{4-amino-3-[(2-methyl-3-furyl)sulfanyl]-1H-pyrazolo[3,4-d]pyrimidin-1-yl}-4-fluoro-3-hydroxytetrahydrofuran-2-yl]methyl sulfamate]
0.05 to 0.1 µM		68%	Cc1cccc(Sc2nn([C@@H]3O[C@H](COS(N)(=O)=O)[C@@H](O)[C@@H]3F)c3ncnc(N)c23)n1 [Compound I-102, [(2R,3R,4S,5R)-5-{4-amino-3-[(6-methylpyridin-2-yl)sulfanyl]-1H-pyrazolo[3,4-d]pyrimidin-1-yl}-4-fluoro-3-hydroxytetrahydrofuran-2-yl]methyl sulfamate]
< 0.02 µM		84%	Nc1ncnc2c1c(SC1CCCC1)nn2[C@@H]1O[C@H](COS(N)(=O)=O)[C@@H](O)[C@@H]1F [Compound I-103, {(2R,3R,4S,5R)-5-[4-amino-3-(cyclopentylsulfanyl)-1H-pyrazolo[3,4-d]pyrimidin-1-yl]-4-fluoro-3-hydroxytetrahydrofuran-2-yl}methyl sulfamate]
0.1 to 0.5 µM		38%	CCN(CC)CCSc1nn([C@@H]2O[C@H](COS(N)(=O)=O)[C@@H](O)[C@@H]2F)c2ncnc(N)c12 [Compound I-104, [(2R,3R,4S,5R)-5-(4-amino-3-{[2-(diethylamino)ethyl]sulfanyl}-1H-pyrazolo[3,4-d]pyrimidin-1-yl)-4-fluoro-3-hydroxytetrahydrofuran-2-yl]methyl sulfamate]
0.1 to 0.5 µM	42%		COc1nn([C@@H]2O[C@H](COS(N)(=O)=O)[C@@H](O)[C@@H]2F)c2ncnc(N)c12 [Compound I-105, [(2R,3R,4S,5R)-5-(4-amino-3-methoxy-1H-pyrazolo[3,4-d]pyrimidin-1-yl)-4-fluoro-3-hydroxytetrahydrofuran-2-yl]methyl Sulfamate]
0.02 to 0.05 µM	78%		Nc1ncnc2c1c(Sc1cccc(Cl)c1)nn2[C@@H]1O[C@H](COS(N)(=O)=O)[C@@H](O)[C@@H]1F [Compound I-106, [(2R,3R,4S,5R)-5-{4-amino-3-[(3-chlorophenyl)sulfanyl]-1H-pyrazolo[3,4-d]pyrimidin-1-yl}-4-fluoro-3-hydroxytetrahydrofuran-2-yl]methyl Sulfamate]
0.05 to 0.1 µM		61%	COc1cccc(Sc2nn([C@@H]3O[C@H](COS(N)(=O)=O)[C@@H](O)[C@@H]3F)c3ncnc(N)c23)n1 [Compound I-107, [(2R,3R,4S,5R)-5-{4-amino-3-[(6-methoxypyridin-2-yl)sulfanyl]-1H-pyrazolo[3,4-d]pyrimidin-1-yl}-4-fluoro-3-hydroxytetrahydrofuran-2-yl]methyl sulfamate]
> 0.5 µM		19%	Nc1ncnc2c1c(C1CC1)nn2[C@@H]1O[C@H](COS(N)(=O)=O)[C@@H](O)[C@@H]1F [Compound I-108, [(2R,3R,4S,5R)-5-(4-amino-3-cyclopropyl-1H-pyrazolo[3,4-d]pyrimidin-1-yl)-4-fluoro-3-hydroxytetrahydrofuran-2-yl]methyl sulfamate]
0.02 to 0.05 µM		82%	Nc1ncnc2c1c(Sc1ccccc1F)nn2[C@@H]1O[C@H](COS(N)(=O)=O)[C@@H](O)[C@@H]1F [Compound I-109, [(2R,3R,4S,5R)-5-{4-amino-3-[(2-fluorophenyl)sulfanyl]-1H-pyrazolo[3,4-d]pyrimidin-1-yl}-4-fluoro-3-hydroxytetrahydrofuran-2-yl]methyl sulfamate]
0.05 to 0.1 µM		56%	Cc1cc(Sc2nn([C@@H]3O[C@H](COS(N)(=O)=O)[C@@H](O)[C@@H]3F)c3ncnc(N)c23)c(C)o1 [Compound I-110, [(2R,3R,4S,5R)-5-{4-amino-3-[(2,5-dimethyl-3-furyl)sulfanyl]-1H-pyrazolo[3,4-d]pyrimidin-1-yl}-4-fluoro-3-hydroxytetrahydrofuran-2-yl]methyl sulfamate]
